Tests used:
SGLT2 = target: T1, SGLT2 (Mus musculus, UniProt Q923I7); test: Test to confirm inhibitory effect on accumulation of liver lipids in KKAy mice bearing fatty liver; format: in vivo, KKA^y mice
T1 construct: Using KKA^y mice (KKAy/Ta Jcl, CLEA Japan, Inc.) as experimental animals; tissue CLEA Japan, Inc. KKAy/Ta Jcl; host or cells: living KKAy mice (whole animal; SGLT2 acts in kidney)
T1 sequence (Q923I7 1-670): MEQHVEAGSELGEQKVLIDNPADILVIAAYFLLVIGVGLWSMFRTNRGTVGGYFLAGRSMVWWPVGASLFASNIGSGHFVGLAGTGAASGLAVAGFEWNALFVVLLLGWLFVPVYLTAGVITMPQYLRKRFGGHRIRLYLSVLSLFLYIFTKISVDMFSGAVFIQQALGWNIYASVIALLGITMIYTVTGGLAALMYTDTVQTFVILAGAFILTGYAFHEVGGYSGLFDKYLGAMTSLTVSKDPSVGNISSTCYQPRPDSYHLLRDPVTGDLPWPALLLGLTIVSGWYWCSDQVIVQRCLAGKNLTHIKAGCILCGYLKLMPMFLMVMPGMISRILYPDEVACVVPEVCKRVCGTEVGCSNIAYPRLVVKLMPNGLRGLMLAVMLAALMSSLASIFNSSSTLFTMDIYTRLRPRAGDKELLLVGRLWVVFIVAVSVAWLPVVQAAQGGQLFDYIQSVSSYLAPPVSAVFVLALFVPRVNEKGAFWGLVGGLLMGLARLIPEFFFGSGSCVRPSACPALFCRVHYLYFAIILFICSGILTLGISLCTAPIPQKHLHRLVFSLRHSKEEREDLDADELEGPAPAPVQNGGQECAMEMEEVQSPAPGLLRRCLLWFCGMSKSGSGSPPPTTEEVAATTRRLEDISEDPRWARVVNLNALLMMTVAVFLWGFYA
Description: Using KKA^y mice (KKAy/Ta Jcl, CLEA Japan, Inc.) as experimental animals, inhibitory effects on accumulation of lipids in liver based on SGLT2 inhibitory effects were evaluated. KKA^y mice bearing fatty liver were prepared as follows.
Female 10-week-old KKA^y mice were bred preparatorily for 4 weeks. During preparatory breeding until 4 days before grouping, the mice were fed on a pellet CE-2 diet for laboratory animal (CLEA Japan, Inc.) under free feeding. From 4 days before grouping, the food was changed to a powdered CE-2 diet for laboratory animal (CLEA Japan, Inc.). At the age of 14 weeks, body weight, blood glucose level and plasma alanine aminotransferase level (ALT) were measured for grouping. The mice were grouped (5 animals in each group) so that in any of these three laboratory values no significant difference was observed between the two groups. In the second group, the mice were fed on a powdered CE-2 diet for laboratory animal (CLEA Japan, Inc.) containing 1000 ppm of 2-(4-methoxybenzyl)phenyl 6-O-ethoxycarbonyl-β-D-glucopyranoside (hereinafter referred to as Compound A) as a SGLT2 inhibitor for 11 days, and then triglyceride contents in liver were measured.
Method of measurement of liver triglyceride content was described as follows. • 1) Ice-cold saline (Otsuka Pharmaceutical Co., Ltd.) was added to liver in the proportion of 4 mL of ice-cold saline to 1 g of the liver, and then a homogenized suspension was prepared in a pestle homogenizer. • 2) To 100 μL of the suspension 1), 800 μL of Folch reagent (chloroform:methanol=2:1) was added and mixed vigorously, and total lipids was extracted. • 3) The mixture 2) was centrifuged (3000 rpm, for 10 min, at room temperature) using a cooled centrifuge (KUBOTA8900, KUBOTA Corporation). • 4) The lower layer after centrifugation in 3) was collected and transferred to another container, and that is referred to as Solution (A). • 5) To the upper layer after centrifugation in 3), 150 μL of Folch reagent was added and mixed vigorously, and centrifugation by the operation identical to that in 3) was performed. […]

[1] = cited from earlier work

SMILES: CCOC(=O)OC[C@H]1O[C@@H](Oc2ccccc2Cc2ccc(OC)cc2)[C@H](O)[C@@H](O)[C@@H]1O [Compound A, 2-(4-methoxybenzyl)phenyl 6-O-ethoxycarbonyl-β-D-glucopyranoside]
- lipid accumulation in liver (SGLT2; administration to KKA^y mice bearing fatty liver, compared to drug-untreated mice): significantly suppressed
- Liver triglyceride content (SGLT2; female KKA^y mice bearing fatty liver, diet containing 1000 ppm for 11 days, mean ± standard error of the mean, * significant (5% or less) vs drug-untreated group): 25.4 ± 3.6* mg/g liver
- increase of lipid accumulative amount in liver (SGLT2; orally administered to rat (so in the source), in comparison with no administration): inhibited significantly

SMILES: CCOC(=O)C(C)(C)Oc1ccc(Cl)cc1 [clofibrate]
- lipid accumulation in liver as a side effect ([1]; Patent Reference 22, while it lowers neutral fat or cholesterol in blood): causes lipid accumulation in liver

SMILES: CCCCNC(=O)NS(=O)(=O)c1ccc(C)cc1 [tolbutamide]
- suppressive effects on lipid accumulation in liver ([1]; non-Patent Reference 7): does not exhibit suppressive effects
